Calls of active or inactive are those of the source. The rule behind the calls is not given here.
How the values were obtained:
[1] = target: T1, Oxysterols receptor LXR-alpha (Homo sapiens) (UniProt Q13133)
T1 sequence (whole entry): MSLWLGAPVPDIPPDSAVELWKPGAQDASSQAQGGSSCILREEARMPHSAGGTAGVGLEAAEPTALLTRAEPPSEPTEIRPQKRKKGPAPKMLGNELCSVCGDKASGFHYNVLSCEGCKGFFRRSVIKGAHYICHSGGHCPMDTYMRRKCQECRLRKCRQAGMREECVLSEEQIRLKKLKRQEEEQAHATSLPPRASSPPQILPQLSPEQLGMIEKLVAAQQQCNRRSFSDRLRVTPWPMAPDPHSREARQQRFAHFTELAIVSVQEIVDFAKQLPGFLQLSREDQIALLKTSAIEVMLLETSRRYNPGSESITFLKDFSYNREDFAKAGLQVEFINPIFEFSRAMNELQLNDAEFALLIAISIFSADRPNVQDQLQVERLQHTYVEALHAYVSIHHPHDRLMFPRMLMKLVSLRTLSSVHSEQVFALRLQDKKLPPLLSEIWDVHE
Description: Relative efficacy compared to 24(S),25-epoxy cholesterol in LXR alpha-Gal4 receptor gene assay

[2] = target: T1, Oxysterols receptor LXR-alpha (Homo sapiens); remark: listed apart in the source
Description: Relative efficacy compared to 24(S),25-epoxy cholesterol in Liver X receptor-alpha ligand-sensing assay

[3] = target: T2, Oxysterols receptor LXR-alpha (Homo sapiens, UniProt Q13133); assay: Ligand-dependent recruitment of steroid receptor co-activator 1 (SRC1) to Liver X receptor-alpha
T2 sequence (Q13133 whole entry): T1 sequence (whole entry)

[4] = target: T2, Oxysterols receptor LXR-alpha; assay: Effective concentration in LXR alpha-Gal4 receptor gene assay
[5] = target: T1, Oxysterols receptor LXR-alpha (Homo sapiens); assay: Effective concentration in LXR alpha-Gal4 receptor gene assay; inactive at 10 uM
[6] = Cmax in mice after 10 mg/kg oral dose; type: ADME, organism-based; parameters: dose 10 mg/kg, route oral; details: mouse, in vivo
[7] = Oral bioavailability after administration of a dose of 10 mg/kg; type: ADME, organism-based; details: in vivo
[8] = the half-life (t1/2) in mice after a dose of 10 mg/kg; type: ADME, organism-based; parameters: dose 10 mg/kg; details: mouse, in vivo

Row | Structure (SMILES) | RE [1] | RE [2] | EC50 [3] [µM] | EC50 [4] [µM] | IA [5] | Cmax [6] [µg/mL] | bioavailability [7] [%] | half-life [8] [h]
1 | O=S(=O)(c1ccccc1)N(CC(F)(F)F)c1ccc(C(O)(C(F)(F)F)C(F)(F)F)cc1 | 2.5 | 1 | – | – | – | – | – | –
2 | COc1ccc(CN(CCCOc2cccc(C(N)=O)c2)CC(c2ccccc2)c2ccccc2)cc1OC | – | 0.2 | 0.26 | – | – | – | – | –
3 | C[C@H](CC[C@@H]1OC1(C)C)[C@H]1CC[C@H]2[C@@H]3CC=C4C[C@@H](O)CC[C@]4(C)[C@H]3CC[C@]12C [24(S),25-EPOXYCHOLESTEROL] | 1 | 1 | 0.095 | 3 | – | – | – | –
4 | NC(=O)Cc1cccc(OCCCN(Cc2cccc(C(F)(F)F)c2Cl)CC(c2ccccc2)c2ccccc2)c1 | 1.5 | 1.1 | 0.045 | 0.425 | – | – | – | –
5 | O=C(O)Cc1cccc(OCCCN(Cc2cccc(C(F)(F)F)c2Cl)CC(c2ccccc2)c2ccccc2)c1 | 1.7 | 1 | 0.125 | 0.19 | – | 12.7 | 70 | 2
6 | NC(=O)Cc1cccc(OCCCN(Cc2ccc(F)c(C(F)(F)F)c2)CC(c2ccccc2)c2ccccc2)c1 | 0.4 | 0.9 | 0.085 | 0.945 | – | – | – | –

Further lines, with some results ahead:

Row | RE [1] | RE [2] | EC50 [3] [µM] | EC50 [4] [µM] | IA [5] | Structure (SMILES) | Cmax [6] [µg/mL] | bioavailability [7] [%] | half-life [8] [h]
7 | – | 0.8 | 0.26 | – | inactive | COc1ccc(CN(CCCOc2cccc(CC(N)=O)c2)CC(c2ccccc2)c2ccccc2)cc1 | – | – | –
8 | 0.3 | 0.7 | 0.085 | 0.65 | – | NC(=O)Cc1cccc(OCCCN(Cc2cccc(C(F)(F)F)c2)CC(c2ccccc2)c2ccccc2)c1 | – | – | –
9 | 0.6 | 0.7 | 0.66 | 4 | – | COc1ccc(CN(CCCOc2cccc(CC(N)=O)c2)CC(c2ccccc2)c2ccccc2)c(OC)c1 | – | – | –
10 | 0.9 | 0.8 | 0.86 | 8 | – | COc1ccc(CN(CCCOc2cccc(CC(=O)O)c2)CC(c2ccccc2)c2ccccc2)cc1 | – | – | –
11 | 0.5 | 0.7 | 0.25 | 0.91 | – | COc1ccc(CN(CCCOc2cccc(CC(N)=O)c2)CC(c2ccccc2)c2ccccc2)cc1F | – | – | –
12 | 0.4 | 0.9 | 0.19 | 0.7 | – | COc1ccc(CN(CCCOc2cccc(CC(N)=O)c2)CC(c2ccccc2)c2ccccc2)c(F)c1 | – | – | –
